Patent US7622480B2, “Azaindolylpiperidine derivatives as antihistaminic and antiallergic agents” (Laboratorios Almirall S.A., priority 2002, dated 2009)

What was measured:
histamine H1 receptor = biological target: T1, histamine H1 receptor (Cavia porcellus, UniProt P31389); experiment: Histamine-H1 receptor binding assay; settings: guinea pig cerebellum membranes, 0.7 nM [3H]-mepyramine, 30 min at 30° C.
T1 construct: performed in guinea pig cerebellum membranes as described previously; from tissue; host or cells: guinea pig cerebellum membranes
T1 sequence (P31389 whole entry): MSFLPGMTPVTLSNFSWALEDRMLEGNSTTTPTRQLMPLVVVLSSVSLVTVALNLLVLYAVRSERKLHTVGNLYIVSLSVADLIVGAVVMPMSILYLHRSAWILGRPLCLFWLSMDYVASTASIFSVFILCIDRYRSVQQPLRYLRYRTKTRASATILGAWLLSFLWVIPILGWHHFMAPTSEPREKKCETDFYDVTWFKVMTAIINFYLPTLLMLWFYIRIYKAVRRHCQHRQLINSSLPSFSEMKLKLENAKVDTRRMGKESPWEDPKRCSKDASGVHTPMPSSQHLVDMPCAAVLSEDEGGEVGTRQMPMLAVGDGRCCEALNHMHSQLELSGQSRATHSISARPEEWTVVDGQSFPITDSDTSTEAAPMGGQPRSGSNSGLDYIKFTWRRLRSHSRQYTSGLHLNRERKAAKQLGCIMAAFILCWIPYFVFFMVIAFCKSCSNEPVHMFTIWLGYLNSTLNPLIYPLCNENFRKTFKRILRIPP
Description: (1) In vitro histamine H1 receptor binding assay, to measure the affinity of the compounds. […] Briefly, the membrane suspensions (160 μg/ml) were incubated at 30° C. with 0.7 nM [^3H]-mepyramine and different concentrations of the test compounds in a final volume of 250 μl. Binding reactions were terminated by filtration after 30 min of incubation and the bound radioactivity was determined. The non-specific binding was measured in the presence of 10 μM of promethazine. The affinity of each test compound to the receptor was determined by using at least six different concentrations run in duplicate. IC50 values were obtained by non-linear regression by use of SAS on a DEC AXP computer.

[1] = test system: Histamine-induced skin vascular permeability in rats; experiment: Histamine-induced skin vascular permeability in rats; type: in vivo; settings: Rattus norvegicus, 4 h; Male Wistar rats, oral, dose of 3 mg/Kg, four hours after administration, compared with vehicle treated group
Description: Either one, four, eight or 24 hours later the rats were lightly anaesthetized with ether and a cutaneous reaction was induced by two intradermal injections of 50 μl of histamine (100 μg/ml) onto the back, followed by a intravenous injection of 3 ml/kg of Evan's Blue (5 mg/ml), both dissolved in saline. Sixty minutes later, the rats were killed by cervical dislocation and the back skin dissected free. The diameter (in millimetres) of the papule was measured in two directions and the area was calculated.

Row | IC50 (histamine H1 receptor) | melting point | SMILES | inhibition in vivo at 3 mg/kg [1]
1 | 70 nM | 81.6 to 83.3 °C | O=C(O)c1ccc(Cl)cc1OCCN1CCC(c2cn(Cc3ccoc3)c3ncccc23)CC1 [Example 44, 4-chloro-2-{2-[4-(1-furan-3-ylmethyl-1H-pyrrolo[2,3-b]pyridin-3-yl)-piperidin-1-yl]-ethoxy}-benzoic acid] | > 50%
2 | 235 nM |  | CCCCn1cc(C2CCN(CCOc3ccccc3C(=O)O)CC2)c2cccnc21 [Example 25, 2-{2-[4-(1-butyl-1H-pyrrolo[2,3-b]pyridin-3-yl)piperidin-1-yl]-ethoxy}-benzoic acid] | > 50%
3 | 335 nM |  | COc1ccc(CN2CCC(c3cn(Cc4ccco4)c4ncccc34)CC2)cc1C(=O)O [Example 10, 5-[4-(1-furan-2-ylmethyl-1H-pyrrolo[2,3-b]pyridin-3-yl)piperidin-1-ylmethyl]-2methoxy-benzoic acid] | > 50%
4 | 475 nM |  | CCCCn1cc(C2CCN(Cc3ccc(OC)c(C(=O)O)c3)CC2)c2cccnc21 [Example 24, 5-[4-(1-butyl-1H-pyrrolo[2,3-b]pyridin-3-yl)piperidin-1-ylmethyl]-2-methoxybenzoic acid] | > 50%
